1 compound from PMC7824081, “Inhibition of DOT1L by Half-Selenopsammaplin A Analogs Suppresses Tumor Growth and EMT-Mediated Metastasis in Triple-Negative Breast Cancer” (Pharmaceuticals, 2020) can be followed below.

For one test, the target named is T1, DOT1L (Homo sapiens, UniProt Q8TEK3).
T1 construct: purchased BPS Bioscience 52202
As to the kind of experiment: DOT1L enzyme activity assay (cell-free). It is filed as biochemical. The note with it: 500 ng/well DOT1L, 2 h incubation. How it is done:
DOT1L enzyme activity was measured using 5 μM S-adenosyl methionine (SAM) as the methyl group donor, synthesized DOT1L substrate as the substrate, and 25 ng/μL DOT1L enzymes from BPS Bioscience (Cat. No. 52202; San Diego, CA, USA) according to the manufacturer’s instructions.

Test [1] concerns other histone H3 methylated lysine residues in MDA-MB-231 cells. Briefly: Western blotting of other methylated histone H3 lysine residues in MDA-MB-231 cells. It is filed as cell-based, human. As to conditions: 48 h. How it is done: Total cell lysates were prepared in 2× sample loading buffer [250 mM Tris-HCl (pH 6.8), 10% glycerol, 4% sodium dodecyl sulfate (SDS), 2% β-mercaptoethanol, 0.006% bromophenol blue, 5 mM sodium orthovanadate, and 50 mM sodium fluoride; Bio-Rad, Hercules, CA, USA]. The protein concentrations of samples were quantified using the bicinchoninic acid (BCA) method and a BCA Protein Assay Kit (Thermo Fisher Scientific, Waltham, MA, USA). Equal amounts of protein (5–20 μg) were separated by 6–13% SDS-polyacrylamide gel electrophoresis (PAGE) and transferred to polyvinylidene fluoride membranes (Millipore, Bedford, MA, USA). The membranes were blocked with 5% bovine serum albumin (Sigma-Aldrich) and then probed with anti-DOT1L, anti-H3K79me2, anti-β-Actin, anti-histone H3, anti-H3K4me2, anti-H3K27me2, anti-H3K36me2, anti-H3K79me1, anti-H3K79me3, and anti-Vimentin antibodies purchased from Cell Signaling Technology (Beverly, MA, USA) or with anti-E-cadherin and anti-N-cadherin antibodies purchased from (BD Biosciences, San Jose, CA, USA). The blots were detected using a WEST-Queen detection system (iNtRON Biotechnology, Seongnam, Korea).
On the technique in general: A western blot detects proteins with antibodies after separation by electrophoresis.

Another test has as its system MDA-MB-231 cells. As to the kind of experiment: Transwell cell invasion assay. The format is cell-based, human. The note with it: 24 h pretreatment, 24 h Transwell. As to the method:
Twenty-four-well Transwell membrane inserts (diameter: 6.5 mm, pore size: 8 μm; Corning, Tewksbury, MA, USA) were each coated with 10 μL of type I collagen (0.5 mg/mL, BD Biosciences, San Diego, CA, USA) and 20 μL of a 1:20 mixture of Matrigel (BD Biosciences) in PBS. After treatment with the indicated compounds for 24 h, MDA-MB-231 human TNBC cells were harvested, resuspended in serum-free medium, and plated (2 × 10^5 cells/chamber) in the upper chambers of the Matrigel-coated Transwell inserts. Medium containing 30% FBS was used as a chemoattractant in the lower chambers. After a 24 h incubation, the cells that had migrated to the outer surfaces of the lower chambers were fixed and stained using the Diff-Quik Staining Kit (Sysmex, Kobe, Japan) and imaged using a Vectra 3.0 Automated Quantitative Pathology Imaging System (Perkin Elmer, Waltham, MA, USA). Representative images from three separate experiments are shown, and the numbers of invaded cells were counted in 5 randomly selected microscopic fields (200× magnification).

The test system of the next test is MDA-MB-231 TNBC cells. As to the kind of experiment: SRB cell proliferation assay, MDA-MB-231. The format is cell-based, human. How it is done:
Human breast epithelial cell line (MCF10A) and human TNBC cell lines (MDA-MB-468, MDA-MB-231, Hs578T, and HCC38 cells) were provided by the American Type Culture Collection (Manassas, VA, USA). MCF10A cells were cultured in Dulbecco’s Modified Eagle’s Medium/Nutrient Mixture F-12 containing 5% donor horse serum, 100 ng/mL cholera toxin, 10 µg/mL human insulin, 20 ng/mL epidermal growth factor, 0.5 µg/mL hydrocortisone, and penicillin-streptomycin (sodium penicillin G: 100 units/mL; streptomycin: 100 μg/mL). The TNBC cells were cultured in medium [Dulbecco’s Modified Eagle’s Medium for MDA-MB-468, MDA-MB-231, and Hs578T cells; Roswell Park Memorial Institute 1640 medium for HCC38 cells] supplemented with penicillin-streptomycin and 10% fetal bovine serum at 37 °C in a humidified incubator with 5% carbon dioxide. MCF10A cells were cultured in DMEM/F12 containing 5% donor horse serum, 100 ng/mL cholera toxin, 10 µg/mL human insulin, 20 ng/mL epidermal growth factor, 0.5 µg/mL hydrocortisone and penicillin-streptomycin. All reagents used for cell culture, including culture medium, fetal bovine serum, trypsin-EDTA solution (1×), and penicillin-streptomycin solution (100×), were purchased from Gibco (Grand Island, NE, USA). Laemmli sample buffer (2×) and 2-mercaptoethanol were purchased from Bio-Rad Laboratories, Inc. (Hercules, CA, USA). EPZ-5676 was purchased from Cayman Chemical (Ann Arbor, MI, USA). Dimethyl sulfoxide (DMSO), bicinchoninic acid, copper (II) sulfate solution, bovine serum albumin (BSA), trichloroacetic acid, sulforhodamine B (SRB), and paclitaxel were purchased from Sigma–Aldrich (St. Louis, MO, USA).
Cell proliferation was evaluated using the SRB assay. Briefly, cells were seeded in 96-well plates and incubated for 30 min (for 0-day controls) or treated with test compounds for the times indicated. After incubation, the cells were fixed, dried, and stained with 0.4% (w/v) SRB in 1% (v/v) acetic acid solution. Unbound dye was removed by washing, and stained cells were dissolved in 10 mM Tris (pH 10.0). Cell proliferation was then determined by measuring the absorbance at 515 nm.

T1 sequence (Q8TEK3 whole entry): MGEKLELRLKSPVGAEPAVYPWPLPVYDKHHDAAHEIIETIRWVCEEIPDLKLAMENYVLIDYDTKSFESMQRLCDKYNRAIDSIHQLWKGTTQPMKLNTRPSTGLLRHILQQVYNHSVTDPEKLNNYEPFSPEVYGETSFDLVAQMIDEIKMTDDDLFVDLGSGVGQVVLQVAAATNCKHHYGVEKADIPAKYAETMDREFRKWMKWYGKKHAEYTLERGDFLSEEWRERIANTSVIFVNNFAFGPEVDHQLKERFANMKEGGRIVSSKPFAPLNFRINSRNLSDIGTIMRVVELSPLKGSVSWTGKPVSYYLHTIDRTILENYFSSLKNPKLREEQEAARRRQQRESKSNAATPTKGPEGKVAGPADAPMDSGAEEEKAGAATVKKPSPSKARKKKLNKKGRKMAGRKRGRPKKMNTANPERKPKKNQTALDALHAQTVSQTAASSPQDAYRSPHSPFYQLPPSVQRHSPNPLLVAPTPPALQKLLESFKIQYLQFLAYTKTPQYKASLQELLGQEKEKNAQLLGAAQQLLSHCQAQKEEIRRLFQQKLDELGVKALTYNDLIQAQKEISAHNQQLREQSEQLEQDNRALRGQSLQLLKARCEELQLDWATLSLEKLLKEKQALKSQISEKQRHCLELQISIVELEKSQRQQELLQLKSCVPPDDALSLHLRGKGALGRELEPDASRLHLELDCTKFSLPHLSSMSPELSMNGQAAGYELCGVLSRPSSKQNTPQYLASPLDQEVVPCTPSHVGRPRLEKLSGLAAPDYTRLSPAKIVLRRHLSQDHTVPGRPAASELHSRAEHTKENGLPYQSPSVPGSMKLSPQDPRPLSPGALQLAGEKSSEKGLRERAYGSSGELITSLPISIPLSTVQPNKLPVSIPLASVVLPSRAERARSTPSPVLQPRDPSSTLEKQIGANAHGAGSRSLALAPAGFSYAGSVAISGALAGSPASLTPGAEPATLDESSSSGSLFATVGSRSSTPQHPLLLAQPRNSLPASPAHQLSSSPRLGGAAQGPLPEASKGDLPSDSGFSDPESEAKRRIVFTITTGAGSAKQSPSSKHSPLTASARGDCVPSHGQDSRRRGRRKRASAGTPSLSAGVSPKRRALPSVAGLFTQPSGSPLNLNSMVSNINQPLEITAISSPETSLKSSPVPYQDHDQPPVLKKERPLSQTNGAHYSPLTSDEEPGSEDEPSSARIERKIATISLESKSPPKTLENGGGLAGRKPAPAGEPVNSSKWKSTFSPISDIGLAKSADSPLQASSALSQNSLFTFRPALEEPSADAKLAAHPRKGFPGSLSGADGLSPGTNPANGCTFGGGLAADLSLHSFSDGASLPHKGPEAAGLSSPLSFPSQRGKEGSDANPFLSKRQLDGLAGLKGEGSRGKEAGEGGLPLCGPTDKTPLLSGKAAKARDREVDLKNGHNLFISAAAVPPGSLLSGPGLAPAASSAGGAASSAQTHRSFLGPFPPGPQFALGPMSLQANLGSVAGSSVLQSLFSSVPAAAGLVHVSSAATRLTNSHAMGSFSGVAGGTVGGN

For the compound `CC(C)(C)c1ccc(C/C(=N\O)C(=O)NCC[Se]Sc2ccccc2)cc1` [9l, (E)-3-(4-(tert-Butyl)phenyl)-2-(hydroxyimino)-N-(2-((phenylthio)selanyl)ethyl)propanamide], the IC50 at DOT1L was found to be 363 nM; in the test on MDA-MB-231 TNBC cells (Homo sapiens, MDA-MB-231, 72 h, SRB assay) it was 160 nM. Further, in test [1], the “other histone H3 methylated lysine residues” value is recorded as “not affected”. Moreover, the cell invasion entry in the test on MDA-MB-231 cells was “significantly inhibited”. Moreover, the “Therapeutic Index” value in the test on MDA-MB-231 TNBC cells (ratio of IC50 values between MCF10A and MDA-MB-231 cells) came out at 161.63.

The term IC50 denotes the concentration that gives 50% inhibition. Low readings indicate greater potency in that assay, high ones weaker potency in that assay.
